Experimental data as given in patent US20060252708A1, “Compositions of flavones and long chain fatty acid derivatives isolated from plants and methods related thereto for the control of prostate disorders” (priority 2005, published 2006).

Key:
Format in all cases: cell-based
[1] = tested on: secreting PSA from LNCaP cells; assay: ELISA of PSA secreted from LNCaP cells (inhibition of PSA secretion); conditions: for inhibition at 6.25 µg/mL: concentration 6.25 ug/ml; for Rate of inhibition (%): Table 2, PSA secretion; for inhibition at 1 µg/mL: concentration 1 ug/ml; for inhibition at 3 µg/mL: concentration 3 ug/ml
Description: For example, in cultured androgen-dependent prostate cancer cells as shown in An enzyme-linked immunoadsorbent assay was adopted to determine the level of secreting PSA from LNCaP cells, an androgen-dependent prostate epithelia cancer cells, by the above-mentioned flavones. At first, 100 μl polyclonal Ab at 4 μg/m was added to coat the microplate. They were placed for 12 hours at 4° C., and then washed by PBST and sealed the plate with PBST for 1 hour at 37° C. Supernatants from flavones or mock-treated cells were added into the plate to incubate at water bathed for 2 hours at 37° C. After washing, primary Ab at 200 ng/ml was added and incubated for 1 hour at 37° C. After washing, secondary Ab at 1:8000 was then added and incubated for 1 hour at room temperature. After washing, color reaction substrate was added and incubated for 10 min at dark, then added 2 N sulfuric acid to measure absorption at 492 nm.

androgen receptor (AR) = target: T1, androgen receptor (AR) (Homo sapiens, UniProt P10275); assay: Androgen receptor activation, luciferase reporter gene system in U2OS cells; conditions: 10 nM andrusol, 24 hr incubation, FIG. 1 and FIG. 4
T1 construct: The full length AR cDNA was cloned from human's adipose tissue using PCR; expressed in transfected cells; host or cells: U2OS cells
T1 sequence (P10275 1-920): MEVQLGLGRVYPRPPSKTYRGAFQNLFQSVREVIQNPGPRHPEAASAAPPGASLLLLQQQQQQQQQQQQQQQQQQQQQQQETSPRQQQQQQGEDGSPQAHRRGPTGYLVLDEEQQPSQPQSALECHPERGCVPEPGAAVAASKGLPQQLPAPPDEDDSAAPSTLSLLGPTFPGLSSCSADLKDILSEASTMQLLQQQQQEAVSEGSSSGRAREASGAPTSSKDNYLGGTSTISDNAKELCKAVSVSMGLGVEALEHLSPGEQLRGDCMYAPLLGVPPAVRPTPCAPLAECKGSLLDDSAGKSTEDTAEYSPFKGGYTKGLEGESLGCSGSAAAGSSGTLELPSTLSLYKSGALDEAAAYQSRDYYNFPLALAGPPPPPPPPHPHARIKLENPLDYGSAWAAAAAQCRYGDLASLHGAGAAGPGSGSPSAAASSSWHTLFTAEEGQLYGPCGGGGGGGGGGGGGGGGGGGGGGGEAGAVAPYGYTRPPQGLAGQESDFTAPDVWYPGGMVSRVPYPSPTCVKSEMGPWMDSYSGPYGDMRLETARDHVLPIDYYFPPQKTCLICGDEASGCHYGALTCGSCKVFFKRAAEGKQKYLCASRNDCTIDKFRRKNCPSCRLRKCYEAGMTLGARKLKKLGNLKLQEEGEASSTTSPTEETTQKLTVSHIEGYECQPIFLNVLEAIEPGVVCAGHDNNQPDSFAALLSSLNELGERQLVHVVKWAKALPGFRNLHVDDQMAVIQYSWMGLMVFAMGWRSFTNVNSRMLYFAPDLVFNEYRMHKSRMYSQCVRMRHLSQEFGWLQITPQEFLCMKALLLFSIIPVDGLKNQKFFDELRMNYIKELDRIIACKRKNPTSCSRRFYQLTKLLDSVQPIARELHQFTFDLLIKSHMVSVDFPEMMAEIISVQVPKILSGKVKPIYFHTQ
Description: The activation of AR was performed using a luciferase reporting gene system. The full length AR cDNA was cloned from human's adipose tissue using PCR. The primer sequence 1 used was 5′-[…]-3′ (SEQ ID NO:1); the primer sequence 2 used was 5′-[…]-3′ (SEQ ID NO:2). The amplified PCR products were inserted into an expression vector, and then sequenced. The reporter genes were constructed using luciferase detected carrier pGL3-Promoter manufactured by Promega Ltd. Three copies of AR response element were inserted into upstream of pGL3-promoter (element sequence 3 used was 5′-[…] -3′) (SEQ ID NO:3). The co-transfection experiments were conducted in 96-well plates using U2OS cells. 24 hours after transfection, 10 nM andrusol, DMSO (0.1%), and testing compounds were added into cell culture for further 24 hr incubation.

[2] = target: T2, estrogen receptor-α (ERα) (Homo sapiens, UniProt P03372); assay: Estrogen receptor-α activation, luciferase reporter gene system in U2OS cells; conditions: 10 nM estradiol, 24 hr incubation, FIG. 2
T2 construct: The full length ER-α and ER-β cDNA were separately cloned from human adipose tissue using PCR method; expressed in transfected cells; host or cells: U2OS cells
T2 sequence (P03372 1-595): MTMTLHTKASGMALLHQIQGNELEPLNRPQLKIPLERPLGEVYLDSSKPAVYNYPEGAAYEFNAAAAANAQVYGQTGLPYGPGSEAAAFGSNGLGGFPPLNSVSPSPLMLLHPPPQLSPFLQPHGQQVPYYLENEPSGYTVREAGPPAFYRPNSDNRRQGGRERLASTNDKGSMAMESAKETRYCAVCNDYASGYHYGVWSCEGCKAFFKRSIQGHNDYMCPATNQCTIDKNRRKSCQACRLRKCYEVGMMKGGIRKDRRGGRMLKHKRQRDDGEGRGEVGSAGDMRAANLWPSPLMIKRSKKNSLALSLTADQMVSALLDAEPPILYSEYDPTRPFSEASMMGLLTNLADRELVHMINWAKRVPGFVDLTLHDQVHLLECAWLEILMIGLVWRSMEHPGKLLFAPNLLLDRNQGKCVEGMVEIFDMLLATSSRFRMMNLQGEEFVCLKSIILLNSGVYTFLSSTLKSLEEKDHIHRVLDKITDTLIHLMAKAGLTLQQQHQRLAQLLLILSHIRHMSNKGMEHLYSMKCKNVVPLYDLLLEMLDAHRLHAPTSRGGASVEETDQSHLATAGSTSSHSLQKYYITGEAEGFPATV
Description: (§1) The activation evaluation of the ERs were performed using a luciferase reporter gene system. The full length ER-α and ER-β cDNA were separately cloned from human adipose tissue using PCR method. The primer sequence 4 (ERα) used was 5′-[…]-3′ (SEQ ID NO:4); the primer sequence 5 (ERα) used was 5′-[…]-3′(SEQ ID NO:5); the primer sequence 6 (ERβ) used was 5′-[…]-3′ (SEQ ID NO:6); the primer sequence 7 (ERβ) used was 5′-[…]-3′(SEQ ID NO:7). The amplified PCR products were inserted into expression vector and confirmed by sequencing. The report genes were constructed by using luciferase detected carrier pGL3-Promoter from Promega Ltd. Three copies of ER response element were inserted into the upstream of pGL3-Promoter (sequence 8 used was 5′-[…] -3′ (SEQ ID NO:8)). The co-transfection experiments were conducted in 96-well plates using U2OS cells. 24 hours after transfection, 10 nM estradiol, DMSO (0.1%), and testing compounds were added into cell culture for further 24 hr incubation.

[3] = target: T3, estrogen receptor-β (ERβ) (Homo sapiens, UniProt Q92731); assay: Estrogen receptor-β activation, luciferase reporter gene system in U2OS cells; conditions: 10 nM estradiol, 24 hr incubation, FIG. 3
T3 construct: The full length ER-α and ER-β cDNA were separately cloned from human adipose tissue using PCR method; expressed in transfected cells; host or cells: U2OS cells
Description: as §1

[4] = Homo sapiens, PSA secretion, read-out: Rate of inhibition (%)
[5] = Homo sapiens, PSA secretion, concentration 12.5 ug/ml, read-out: Rate of inhibition (%)
[6] = Homo sapiens, PSA secretion, concentration 25 ug/ml, read-out: Rate of inhibition (%)
[7] = Homo sapiens, PSA secretion, concentration 50 ug/ml, read-out: Rate of inhibition (%)

T3 sequence (Q92731 whole entry): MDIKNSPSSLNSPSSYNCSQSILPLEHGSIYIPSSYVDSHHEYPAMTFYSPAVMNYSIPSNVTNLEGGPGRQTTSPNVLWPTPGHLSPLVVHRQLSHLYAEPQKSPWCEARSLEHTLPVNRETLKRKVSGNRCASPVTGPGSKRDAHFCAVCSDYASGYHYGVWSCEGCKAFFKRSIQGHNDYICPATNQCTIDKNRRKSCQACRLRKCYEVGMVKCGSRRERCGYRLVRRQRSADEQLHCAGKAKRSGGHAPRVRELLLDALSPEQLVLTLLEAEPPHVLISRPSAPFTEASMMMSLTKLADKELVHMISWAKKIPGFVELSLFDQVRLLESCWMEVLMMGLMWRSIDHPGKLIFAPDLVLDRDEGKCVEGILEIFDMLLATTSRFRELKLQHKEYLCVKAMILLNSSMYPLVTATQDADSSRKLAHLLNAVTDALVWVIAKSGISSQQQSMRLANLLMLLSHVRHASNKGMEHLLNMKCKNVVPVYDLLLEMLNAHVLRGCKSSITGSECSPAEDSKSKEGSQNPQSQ

Row | Compound | inhibition at 6.25 µg/mL [1, 4] [%] | inhibition at 12.5 µg/mL [1, 5] [%] | inhibition at 25 µg/mL [1, 6] [%] | inhibition at 50 µg/mL [1, 7] [%] | Inhibition of androgen receptor (AR) activation (androgen receptor (AR)) | Effect on estrogen receptor-α (ERα) activation [2] | Effect on estrogen receptor-β (ERβ) activation [3] | Rate of inhibition (%) ([1]; concentration 5 ug/ml) | Rate of inhibition (%) ([1]; concentration 12.5 ug/ml) | Rate of inhibition (%) ([1]; concentration 25 ug/ml) | Rate of inhibition (%) ([1]; concentration 50 ug/ml) | inhibition at 1 µg/mL [1, 4] [%] | inhibition at 3 µg/mL [1, 4] [%] | further results
1 | O=C1C[C@@H](c2ccc(O)cc2)Oc2cc(O)cc(O)c21 [naringenin] | 78 | 84 | 87 | 88 | Inhibition of androgen receptor (AR) activation | Inhibition | Inhibition |  |  |  |  |  |  | 
2 | CCC=CCC=CCC=CCCCCCCCC(=O)NCCO [Long chain amide, N-(2-ethoxyl)-9,12,15-linolenamide] |  |  |  |  | Inhibition of androgen receptor (AR) activation |  |  | 9.7 | 31 | 63 | 71 |  |  | Rate of inhibition (%) ([1]; concentration 20 ug/ml): 52%
3 | O=c1cc(-c2ccc(O)c(O)c2)oc2cc(O)cc(O)c12 [luteolin] |  |  |  |  | Inhibition of androgen receptor (AR) activation | Inhibition | Inhibition |  |  |  |  | 37 | 48 | inhibition at 10 µg/mL ([1]; Homo sapiens, PSA secretion, concentration 10 ug/ml, read-out: Rate of inhibition (%)): 57%; inhibition at 20 µg/mL ([1]; Homo sapiens, PSA secretion, concentration 20 ug/ml, read-out: Rate of inhibition (%)): 67%; inhibition at 40 µg/mL ([1]; Homo sapiens, PSA secretion, concentration 40 ug/ml, read-out: Rate of inhibition (%)): 100%
4 | O=c1c(O)c(-c2ccc(O)cc2)oc2cc(O)cc(O)c12 [kaempferol] | 69 | 65 | 66 | 89 |  |  |  |  |  |  |  | 53 | 60 | 
5 | hexadecanoic 1-O-β-D-fructoside [Hexadecanoic fructoside] |  |  |  |  | Inhibition of androgen receptor (AR) activation |  |  | 4.5 | 8.4 | 26 | 42 |  |  | Rate of inhibition (%) ([1]; concentration 100 ug/ml): 76%
6 | CCC=CCC=CCC=CCCCCCCCC(=O)OC[C@@]1(O)O[C@H](CO)[C@@H](O)[C@@H]1O [Octadecatrienoic acid fructoside, 9,12,15-octadecatrienoic acid 1-O-β-D-fructoside] |  |  |  |  | Inhibition of androgen receptor (AR) activation |  |  | 23 | 57 | 76 |  |  |  | Rate of inhibition (%) ([1]; concentration 10 ug/ml): 40%
